Results on 16 molecules are retold here after patent publication US10689628B2, “Method of making variant LovD polypeptides” (THE REGENTS OF THE UNIVERSITY OF CALIFORNIA, priority 2009, dated 2020).

“Also recorded” adds a separate entry of the source.

For one data set, the target named is T1, LovD (Aspergillus terreus, UniProt Q9Y7D1).
T1 construct: made in house; host or cells: E. coli BL21(DE3)/pAW31
The settings on record: cited from earlier work; for substrate quality for LovD (in words): WO 2007/139871, acyl-CoA substrates; for apparent kcat: WO 2007/139871, acyl donor with LovD and monacolin J; for conversion / acylation of monacolin J with acyl-CoA: WO 2007/139871: 1 mM monacolin J, 4 mM acyl-CoA, 10 uM LovD, 10 hours.

A short description of data set [1]: Native gel / SDS-PAGE of LovD proteins (oligomer, insoluble protein). The data set is classed as physicochemical. Particulars: DTT fixed at 2 mM. On the procedure:
FIG. 2. (a) SDS-PAGE gel LovD protein (WT) from E. coli BL21(DE3)/pAW31; (b) native gel of LovD protein (WT) and A1-A8 respectively, DTT was fixed at 2 mM for all samples.
LovD protein was purified to homogeneity by one step Ni-NTA column (FIG. 2a). […] The disulfide bonds between the proteins are spurious for protein crystallization because the monomer and oligomer are different species (see, e.g. Nemoto et al., 2006; J Appl Physiol 100(5):1688-91). One of our purposes was to remove the intermolecular disulfide bonds. By replacing the cysteine residues with alanine, we hope the resultant LovD mutant can keep the acyl-transferase activity while breaking the intermolecular disulfide bonds. […] We reasoned that the solubility of LovD may be changed when the intermolecular disulfide bonds between wild type LovD was eliminated (see, e.g. Lindberg et al., M. 2004; Proc Natl Acad Sci USA 101(45):15893-8).
We ran the native gel of all the mutant proteins together with the wild type LovD protein (FIG. 2b).

A further data set concerns E. coli YT2. The experiment in a line: Whole-cell biocatalysis, MJ acid and DMB-S-MMP to simvastatin acid (Example 1). The settings on record: 8 hours conversion, alanine scanning mutants.

T1 sequence (Q9Y7D1 whole entry): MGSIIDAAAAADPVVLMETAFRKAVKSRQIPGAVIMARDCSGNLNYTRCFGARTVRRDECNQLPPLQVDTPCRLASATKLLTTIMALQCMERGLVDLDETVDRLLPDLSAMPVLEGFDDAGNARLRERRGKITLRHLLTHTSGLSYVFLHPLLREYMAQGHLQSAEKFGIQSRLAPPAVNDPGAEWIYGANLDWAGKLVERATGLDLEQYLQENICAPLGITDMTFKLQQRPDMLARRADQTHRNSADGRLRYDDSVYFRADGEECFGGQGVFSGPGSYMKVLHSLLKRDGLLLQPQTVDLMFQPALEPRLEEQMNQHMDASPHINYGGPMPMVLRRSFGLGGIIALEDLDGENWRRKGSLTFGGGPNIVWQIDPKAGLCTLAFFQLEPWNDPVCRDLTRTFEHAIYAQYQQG
Method for E. coli YT2: Whole cell biocatalytic activities based on the conversion from MJ acid and DMB-S-MMP (gray column) and soluble protein expression level comparison between the wild type LovD and the mutants (black column). For the whole cell activity, the LB culture was concentrated 10 times to mimic high density fermentation, 15 mM MJ acid and 18 mM DMB-S-MMP were used to compare the conversion. The conversion based on 8 hours was used to compare the whole cell activity between the wild type LovD and the mutants. The wild type LovD conversion was normalized to 100%, the data points are averaged values of two runs.
The LovD wild type and all mutants were cultured side-by-side for comparison. A single colony of the freshly transformed strains was used to inoculate a 5 ml LB culture supplemented with 35 mg/L kan and grown overnight at 37° C. The next morning, 100 μl of the overnight culture (0.2%) was inoculated into 50 ml LB medium with Kan. When OD600 reached 0.4˜0.6, 0.1 mM IPTG was added to the culture and expression of LovD was performed at 20° C. for 16 hrs. To mimic the high density fermentation conditions, the cells were concentrated 10-fold before addition of substrates. A 14 ml aliquot of the culture was collected by centrifugation (4° C., 4000 g, 10 min). The cell pellet was gently resuspended in 1330 ml of the supernatant, followed by addition of 70 ml of a MJ acid stock solution (300 mM in water) to make final concentration 15 mM. The concentrated culture was then resuspended and separated into seven 200 μl samples, 1 μl of pure DMB-S-MMP was added to each sample (final concentration ˜20 mM). The cultures were then shaken at 300 rpm at room temperature. At each time point, a total extraction was performed by adding 10 μl of 20% SDS to completely lyse the cells, followed by liquid—liquid extraction with 500 μl EA/2% TFA. The organic phase was removed, evaporated, and redissolved in 500 μl ACN for HPLC analysis.
We then tested the in vivo activity of the nine mutants in comparison to the wild type LovD. Both the mutants and the wild type LovD strains were grown in LB media, expressed and concentrated 10 times to mimic the high density fermentation after 16 hours expression at 20° C. Both MJ acid and DMB-S-MMP were added to final 15 mM and 18 mM respectively to start the reaction. At 8 hours, 100 μl sample culture was taken out to check the total conversion from MJ acid to simvastatin acid.

Take `CC(C)(COP(=O)(O)OP(=O)(O)OC[C@H]1O[C@@H](n2cnc3c(N)ncnc32)[C@H](O)[C@@H]1OP(=O)(O)O)[C@@H](O)C(=O)NCCC(=O)NCCSC(=O)CC(=O)O` [malonyl-CoA]: the “substrate quality for LovD (in words)” value on LovD was “inactive”.

For the molecule `CCCC(=O)SCCNC(=O)CCNC(=O)[C@H](O)C(C)(C)COP(=O)(O)OP(=O)(O)OC[C@H]1O[C@@H](n2cnc3c(N)ncnc32)[C@H](O)[C@@H]1OP(=O)(O)O` [butyryl-CoA], the “substrate quality for LovD (in words)” value on LovD is reported as “optimal alkylacyl-CoA substrate”.

In the case of `CC(=O)CC(=O)SCCNC(=O)CCNC(=O)[C@H](O)C(C)(C)COP(=O)(O)OP(=O)(O)OC[C@H]1O[C@@H](n2cnc3c(N)ncnc32)[C@H](O)[C@@H]1OP(=O)(O)O` [Acetoacetyl-CoA], the “substrate quality for LovD (in words)” value on LovD is “excellent substrates”.

Regarding `CC(C)(COP(=O)(O)OP(=O)(O)OC[C@H]1O[C@@H](n2cnc3c(N)ncnc32)[C@H](O)[C@@H]1OP(=O)(O)O)[C@@H](O)C(=O)NCCC(=O)NCCSC(=O)c1ccccc1` [benzoyl-CoA], at LovD, the apparent kcat is 0.00267 s⁻¹ and the “conversion / acylation of monacolin J with acyl-CoA” value was about 70%.

In the case of `CC[C@H](C)C(=O)SCCNC(C)=O` [α-S-methylbutyryl-SNAC], the apparent kcat on LovD was about 0.00067 s⁻¹.

Take `CCCCCCCCCCCCCCCC(=O)SCCNC(=O)CCNC(=O)[C@H](O)C(C)(C)COP(=O)(O)OP(=O)(O)OC[C@H]1O[C@@H](n2cnc3c(N)ncnc32)[C@H](O)[C@@H]1OP(=O)(O)O` [palmitoyl-CoA]: the “substrate quality for LovD (in words)” value on LovD is “inactive”.

With `C/C=C/C(=O)SCCNC(=O)CCNC(=O)[C@H](O)C(C)(C)COP(=O)(O)OP(=O)(O)OC[C@H]1O[C@@H](n2cnc3c(N)ncnc32)[C@H](O)[C@@H]1OP(=O)(O)O` [crotonyl-CoA], the “conversion / acylation of monacolin J with acyl-CoA” value at LovD is 6%.

Regarding `CC(O)CC(=O)SCCNC(=O)CCNC(=O)[C@H](O)C(C)(C)COP(=O)(O)OP(=O)(O)OC[C@H]1O[C@@H](n2cnc3c(N)ncnc32)[C@H](O)[C@@H]1OP(=O)(O)O` (stereo partly drawn) [β-hydroxylbutyryl-CoA], at LovD, the “substrate quality for LovD (in words)” value is recorded as “excellent substrates”.

Consider `CCCC(=O)SCCNC(C)=O` [SNAC, butyryl-SNAC], for which, on LovD, the apparent kcat was 0.0015 s⁻¹.

B1: A4: LovD C72A mutant (protein, UniProt Q9Y7D1 1-413, looked up, variant C72A)
Monacolin J acid …: MGSIIDAAAAADPVVLMETAFRKAVKSRQIPGAVIMARDCSGNLNYTRCFGARTVRRDECNQLPPLQVDTPARLASATKLLTTIMALQCMERGLVDLDETVDRLLPDLSAMPVLEGFDDAGNARLRERRGKITLRHLLTHTSGLSYVFLHPLLREYMAQGHLQSAEKFGIQSRLAPPAVNDPGAEWIYGANLDWAGKLVERATGLDLEQYLQENICAPLGITDMTFKLQQRPDMLARRADQTHRNSADGRLRYDDSVYFRADGEECFGGQGVFSGPGSYMKVLHSLLKRDGLLLQPQTVDLMFQPALEPRLEEQMNQHMDASPHINYGGPMPMVLRRSFGLGGIIALEDLDGENWRRKGSLTFGGGPNIVWQIDPKAGLCTLAFFQLEPWNDPVCRDLTRTFEHAIYAQYQQG
Take B1: the “native gel: oligomer / monomer / stability (in words)” value in data set [1] is listed as “not very stable; also recorded: less proteins”.

B2: A6: LovD C216A mutant (protein, UniProt Q9Y7D1 1-413, looked up, variant C216A)
Monacolin J acid …: MGSIIDAAAAADPVVLMETAFRKAVKSRQIPGAVIMARDCSGNLNYTRCFGARTVRRDECNQLPPLQVDTPCRLASATKLLTTIMALQCMERGLVDLDETVDRLLPDLSAMPVLEGFDDAGNARLRERRGKITLRHLLTHTSGLSYVFLHPLLREYMAQGHLQSAEKFGIQSRLAPPAVNDPGAEWIYGANLDWAGKLVERATGLDLEQYLQENIAAPLGITDMTFKLQQRPDMLARRADQTHRNSADGRLRYDDSVYFRADGEECFGGQGVFSGPGSYMKVLHSLLKRDGLLLQPQTVDLMFQPALEPRLEEQMNQHMDASPHINYGGPMPMVLRRSFGLGGIIALEDLDGENWRRKGSLTFGGGPNIVWQIDPKAGLCTLAFFQLEPWNDPVCRDLTRTFEHAIYAQYQQG
As for B2, the “native gel: oligomer / monomer / stability (in words)” value in data set [1] is “very similar to WT”.

B3: A9: LovD C395A mutant (protein, UniProt Q9Y7D1 1-413, looked up, variant C395A)
Monacolin J acid …: MGSIIDAAAAADPVVLMETAFRKAVKSRQIPGAVIMARDCSGNLNYTRCFGARTVRRDECNQLPPLQVDTPCRLASATKLLTTIMALQCMERGLVDLDETVDRLLPDLSAMPVLEGFDDAGNARLRERRGKITLRHLLTHTSGLSYVFLHPLLREYMAQGHLQSAEKFGIQSRLAPPAVNDPGAEWIYGANLDWAGKLVERATGLDLEQYLQENICAPLGITDMTFKLQQRPDMLARRADQTHRNSADGRLRYDDSVYFRADGEECFGGQGVFSGPGSYMKVLHSLLKRDGLLLQPQTVDLMFQPALEPRLEEQMNQHMDASPHINYGGPMPMVLRRSFGLGGIIALEDLDGENWRRKGSLTFGGGPNIVWQIDPKAGLCTLAFFQLEPWNDPVARDLTRTFEHAIYAQYQQG
As to B3, in the data set on E. coli YT2, the “whole cell activity compared to the wild type (in words)” value is listed as “no activity”. Also, in data set [1], the “native gel: oligomer / monomer / stability (in words)” value is “no soluble proteins at all”.

B4: A2: LovD C49A mutant (protein, UniProt Q9Y7D1 1-413, looked up, variant C49A)
Monacolin J acid …: MGSIIDAAAAADPVVLMETAFRKAVKSRQIPGAVIMARDCSGNLNYTRAFGARTVRRDECNQLPPLQVDTPCRLASATKLLTTIMALQCMERGLVDLDETVDRLLPDLSAMPVLEGFDDAGNARLRERRGKITLRHLLTHTSGLSYVFLHPLLREYMAQGHLQSAEKFGIQSRLAPPAVNDPGAEWIYGANLDWAGKLVERATGLDLEQYLQENICAPLGITDMTFKLQQRPDMLARRADQTHRNSADGRLRYDDSVYFRADGEECFGGQGVFSGPGSYMKVLHSLLKRDGLLLQPQTVDLMFQPALEPRLEEQMNQHMDASPHINYGGPMPMVLRRSFGLGGIIALEDLDGENWRRKGSLTFGGGPNIVWQIDPKAGLCTLAFFQLEPWNDPVCRDLTRTFEHAIYAQYQQG
In the case of B4, the “native gel: oligomer / monomer / stability (in words)” value in data set [1] was “very similar to WT”.

B5: A7: LovD C266A mutant (protein, UniProt Q9Y7D1 1-413, looked up, variant C266A)
Monacolin J acid …: MGSIIDAAAAADPVVLMETAFRKAVKSRQIPGAVIMARDCSGNLNYTRCFGARTVRRDECNQLPPLQVDTPCRLASATKLLTTIMALQCMERGLVDLDETVDRLLPDLSAMPVLEGFDDAGNARLRERRGKITLRHLLTHTSGLSYVFLHPLLREYMAQGHLQSAEKFGIQSRLAPPAVNDPGAEWIYGANLDWAGKLVERATGLDLEQYLQENICAPLGITDMTFKLQQRPDMLARRADQTHRNSADGRLRYDDSVYFRADGEEAFGGQGVFSGPGSYMKVLHSLLKRDGLLLQPQTVDLMFQPALEPRLEEQMNQHMDASPHINYGGPMPMVLRRSFGLGGIIALEDLDGENWRRKGSLTFGGGPNIVWQIDPKAGLCTLAFFQLEPWNDPVCRDLTRTFEHAIYAQYQQG
Consider B5, for which the “native gel: oligomer / monomer / stability (in words)” value in data set [1] is “not very stable; also recorded: less proteins”.

B6: A5: LovD C89A mutant (protein, UniProt Q9Y7D1 1-413, looked up, variant C89A)
Monacolin J acid …: MGSIIDAAAAADPVVLMETAFRKAVKSRQIPGAVIMARDCSGNLNYTRCFGARTVRRDECNQLPPLQVDTPCRLASATKLLTTIMALQAMERGLVDLDETVDRLLPDLSAMPVLEGFDDAGNARLRERRGKITLRHLLTHTSGLSYVFLHPLLREYMAQGHLQSAEKFGIQSRLAPPAVNDPGAEWIYGANLDWAGKLVERATGLDLEQYLQENICAPLGITDMTFKLQQRPDMLARRADQTHRNSADGRLRYDDSVYFRADGEECFGGQGVFSGPGSYMKVLHSLLKRDGLLLQPQTVDLMFQPALEPRLEEQMNQHMDASPHINYGGPMPMVLRRSFGLGGIIALEDLDGENWRRKGSLTFGGGPNIVWQIDPKAGLCTLAFFQLEPWNDPVCRDLTRTFEHAIYAQYQQG
As for B6, the “native gel: oligomer / monomer / stability (in words)” value in data set [1] is listed as “not very stable; also recorded: less proteins”.

B7: A8: LovD C380A mutant (protein, UniProt Q9Y7D1 1-413, looked up, variant C380A)
Monacolin J acid …: MGSIIDAAAAADPVVLMETAFRKAVKSRQIPGAVIMARDCSGNLNYTRCFGARTVRRDECNQLPPLQVDTPCRLASATKLLTTIMALQCMERGLVDLDETVDRLLPDLSAMPVLEGFDDAGNARLRERRGKITLRHLLTHTSGLSYVFLHPLLREYMAQGHLQSAEKFGIQSRLAPPAVNDPGAEWIYGANLDWAGKLVERATGLDLEQYLQENICAPLGITDMTFKLQQRPDMLARRADQTHRNSADGRLRYDDSVYFRADGEECFGGQGVFSGPGSYMKVLHSLLKRDGLLLQPQTVDLMFQPALEPRLEEQMNQHMDASPHINYGGPMPMVLRRSFGLGGIIALEDLDGENWRRKGSLTFGGGPNIVWQIDPKAGLATLAFFQLEPWNDPVCRDLTRTFEHAIYAQYQQG
As for B7, the “native gel: oligomer / monomer / stability (in words)” value in data set [1] is recorded as “very similar to WT”.
